# Laboratory results reported in patent US20110105855A1, “EARLY DETECTION OF COGNITION IMPAIRMENT IN ELDERLY POPULATION” (TRUSTEES OF TUFTS COLLEGE, priority 2009, published 2011).
# Experiments:
# [1] = system: cognitive function; details: healthy older adults, intervention trial (Johnson et al. 2008); cited from earlier work
# [2] = elderly population of healthy 65 year olds; cited from earlier work
# [3] = set-up: species or system rhesus monkeys (Macaca mulatta); details: rhesus monkey, in vivo, 2.2 mg/kg/day
# Excerpt: Study 1. Lutein and Zeaxanthin Supplementation Study. Eighteen rhesus monkeys (Macaca mulatta) were reared on one of two semipurified diets, both of which contained adequate levels of all known nutrients, but no detectable xanthophylls as analyzed by our laboratory. The animals also received limited amounts of very low xanthophyll foods such as wheat or rice cereals, white rice, sweetened drinks and gelatin, pineapple and banana.
# Beginning at 7-16 years of age, 6 of these monkeys were supplemented with pure lutein and 6 with pure zeaxanthin, at 3.9 μmol/kg/day (2.2 mg/kg/day). The lutein and zeaxanthin supplements were purified or synthesized by DSM Nutritional Products, Ltd. The supplements were inserted into marshmallows, sweetened gelatin or small pieces of fruit. Beadlets and individual supplement doses were stored at 4° C. in the dark. […]
# Biopsy punches were used to dissect the central retina, containing the macula, into a 4 mm diameter circle centered on the fovea. Retinal tissue was analyzed for carotenoids as described previously (1). Cerebellum and occipital cortex samples were collected and analyzed for carotenoids as described by Park et al. (2). […]
# Relationships between retina and brain tissue were evaluated using Pearson's correlation coefficients. For those relationships with sample size >6, p values were calculated.
smiles,measurement,setting,value
CC1=C[C@H](O)CC(C)(C)[C@H]1/C=C/C(C)=C/C=C/C(C)=C/C=C/C=C(C)/C=C/C=C(C)/C=C/C1=C(C)C[C@@H](O)CC1(C)C [Lutein],Effect of supplementation on cognitive function,[1],improve cognitive function
same,Average plasma level,[2],0.27 ± 0.15 µM
same,Carotenoids found in brain tissue,[3],the only carotenoid measured in brain tissue
CC1=C(/C=C/C(C)=C/C=C/C(C)=C/C=C/C=C(C)/C=C/C=C(C)/C=C/C2=C(C)C[C@@H](O)CC2(C)C)C(C)(C)C[C@H](O)C1 [Zeaxanthin],Average plasma level,[2],0.032 ± 0.021 µM
same,Carotenoids found in brain tissue,[3],the only carotenoid measured in brain tissue
